Assay results: patent US5393774A, “Phenylethanolamines, pharmaceutical compositions containing these compounds and process for preparing them” (priority 1990, dated 1995)
Like-named read-outs stand apart in the source and are kept apart here.

Tested on: bronchospasm triggered by intravenous administration of 20 μg/kg of acetyl-choline
Test: broncholytic effect, test arrangement according to KONZETT and ROSSLER on anesthetized guinea-pigs
Format: in vivo
Settings: Cavia porcellus, read-out: ED50 (broncholytic effect, reduction in acetyl-choline bronchospasm)
[1] = after i.v. administration, anesthetized guinea-pigs, 20 μg/kg acetyl-choline i.v., linear regression analysis

Description: The broncholytic effect was investigated by the test arrangement according to KONZETT and ROSSLER (Arch. exp. Path. Pharmak. 195, 71 (1940)) on anesthetized guinea-pigs. An ED50 was calculated from the average percentage reduction, achieved with the various intravenous doses, in the bronchospasm triggered by intravenous administration of 20 μg/kg of acetyl-choline, by linear regression analysis according to LINDER (Statistische Methoden, 4th Edition, pp. 148-162, Birkhauser, Basel 1964):

SMILES | ED50 [1] | ED50
CCOC(=O)Nc1c(F)cc(C(O)CNCCCCCCOCCCCc2ccccc2)cc1C#N.Cl (stereo not shown) [Substance A, 1-(4-ethoxycarbonylamino-3-cyano-5-fluoro-phenyl)-2-[6-(4-phenyl-butoxy)hexylamino]-ethanol-hydrochloride] | 10.2 µg/kg | –
Cl.N#Cc1cc(C(O)CNCCCCCCOCCCCc2ccccc2)cc(F)c1N (stereo not shown) [Substance B, 1-(4-amino-3-cyano-5-fluoro-phenyl)-2-[6-(4-phenylbutoxy)-hexyl-amino]ethanol-hydrochloride] | 2.5 µg/kg | –
COc1ccc(CC(C)NCC(O)c2cc(F)c(N)c(C#N)c2)cc1.Cl (stereo not shown) [Substance C, 1-(4-amino-3-cyano-5-fluoro-phenyl)-2-[2-(4-methoxyphenyl)-1-methyl-ethylamino]-ethanol-hydrochloride] | – | 0.16 µg/kg
Nc1c(Cl)cc(C(O)CNCCCCCCOCCCCc2ccccc2)cc1Cl (stereo not shown) [V] | > 400 µg/kg | –
